≈ marks a conversion by molar mass, not a printed value. Where two headings read alike, the source gives them in different places.
Experiments:
[1] = tested on: P. mirabilis A9900; assay: animal or person; type: in vivo, mice; settings: Proteus mirabilis, A9900, in Mus musculus, po
[2] = tested on: K. pneumoniae A9977; assay: animal or person; type: in vivo, mice; settings: Klebsiella pneumoniae, A9977, in Mus musculus, po, read-out: PD50 /treatment
[3] = tested on: experimental tuberculosis; settings: cited from earlier work
[4] = tested on: E. coli A15119; assay: animal or person; type: in vivo, mice; settings: Escherichia coli, A15119, in Mus musculus, po, read-out: PD50 /treatment
[5] = tested on: Staph. aureus; assay: microbe, parasite or virus in culture; type: cell-based; settings: Staphylococcus aureus, read-out: Geometric Mean MIC
Experimental: (§1) The geometric mean MIC's were determined from MIC's obtained in two separate tests of each of the strains of Staphylococcus and Proteus, and three separate tests for each of the other organisms.

[6] = tested on: E. coli; assay: microbe, parasite or virus in culture; type: cell-based; settings: Escherichia coli
Experimental: as §1

[7] = tested on: Pr. vulgaris; assay: microbe, parasite or virus in culture; type: cell-based; settings: for MIC: Proteus vulgaris
Experimental: as §1

[8] = tested on: Ent. cloacae; assay: microbe, parasite or virus in culture; type: cell-based; settings: Enterobacter cloacae
Experimental: as §1

[9] = tested on: Pr. mirabilis; assay: microbe, parasite or virus in culture; type: cell-based; settings: Proteus mirabilis
Experimental: as §1

[10] = tested on: Pr. rettgeri; assay: microbe, parasite or virus in culture; type: cell-based; settings: Providencia rettgeri
Experimental: as §1

[11] = tested on: Kl. pneumoniae; assay: microbe, parasite or virus in culture; type: cell-based; settings: Klebsiella pneumoniae
Experimental: as §1

[12] = tested on: Pr. morganii; assay: microbe, parasite or virus in culture; type: cell-based; settings: Morganella morganii
Experimental: as §1

[13] = tested on: S. typhosa; settings: in vivo; cited from earlier work
[14] = tested on: experimental tuberculosis; settings: cited from earlier work; remark: listed apart in the source
[15] = tested on: Histoplasma capsulatum; settings: mouse, in vivo, iv; cited from earlier work
[16] = tested on: S. aureus A9537; assay: animal or person; type: in vivo, mice; settings: Staphylococcus aureus, A9537, in Mus musculus, po
[17] = tested on: Staph. aureus; assay: microbe, parasite or virus in culture; type: cell-based
Experimental: (§2) *The MIC's were determined by the twofold broth dilution method following
(§3) overnight incubation at 37° C in Meuller-Hinton Broth containing 2
(§4) lysed defibrinated horse blood and using 10^-4 dilutions of overnight
(§5) broth cultures (10^-3 dilutions of Staph. aureus strains A9606 and
(§6) A15097) as inocula at the rate of 0.5 ml of inoculum per 0.5 ml of […]

[18] = tested on: E. coli; assay: microbe, parasite or virus in culture; type: cell-based; settings: Escherichia coli; remark: listed apart in the source
Experimental: as §2, §3, §4, §5, §6

[19] = tested on: Ent. cloacae; assay: microbe, parasite or virus in culture; type: cell-based; settings: Enterobacter cloacae; remark: listed apart in the source
Experimental: as §2, §3, §4, §5, §6

[20] = tested on: Pr. mirabilis; assay: microbe, parasite or virus in culture; type: cell-based
Experimental: as §2, §3, §4, §5, §6

[21] = tested on: Kl. pneumoniae; assay: microbe, parasite or virus in culture; type: cell-based; settings: Klebsiella pneumoniae; remark: listed apart in the source
Experimental: as §2, §3, §4, §5, §6

[22] = tested on: Ps. aeruginosa; assay: microbe, parasite or virus in culture; type: cell-based; settings: Pseudomonas aeruginosa
Experimental: as §2, §3, §4, §5, §6

[23] = tested on: a variety of bacterial species; settings: cited from earlier work
[24] = tested on: S. pyogenes A9604; assay: animal or person; type: in vivo, mice; settings: Streptococcus pyogenes, A9604, in Mus musculus, po, read-out: PD50 /treatment
[25] = tested on: Plasmodium berghei; settings: in vivo; cited from earlier work
[26] = tested on: Ps. fluorescens; settings: in vivo; cited from earlier work
[27] = tested on: A20119; assay: Antibacterial activity, MIC by twofold broth dilution (Table 1), organism name not given; type: cell-based
Experimental: as §2, §3, §4, §5, §6

[28] = laboratory animals, cited from earlier work

## Nc1ccc(P(=O)(O)O)cc1 [P, p-aminophenylphosphonic acid]
[1]; read-out: PD50 /treatment, oral, mice, challenge 6×10^6, 0 and 2 hr post-challenge
  ED50: > 200 mg/kg
[1]; read-out: PD50 /treatment, oral, mice, challenge 8×10^6, 0 and 2 hr post-challenge (1st P. mirabilis line)
  ED50: > 800 mg/kg
[1]; read-out: PD50 /treatment, oral, mice, challenge 8×10^6, 0 and 2 hr post-challenge (3rd P. mirabilis line)
  ED50: > 200 mg/kg
[2]; 54 h
  ED50: > 400 mg/kg
[2]
  ED50: > 400 mg/kg
[3]
  tubercularstatic activity in vitro: good tubercularstatic activity in vitro
[4]; 3 h
  ED50: > 400 mg/kg
[4]
  ED50: > 400 mg/kg
[5]
  MIC: > 109 µg/mL
[6]; read-out: Geometric Mean MIC, 1 strain (1st E. coli line)
  MIC: 6.4 µg/mL (≈ 37 µM)
[6]; read-out: Geometric Mean MIC, 2 strains (2nd E. coli line)
  MIC: 18 µg/mL (≈ 104 µM)
[6]; read-out: Geometric Mean MIC, 2 strains (3rd E. coli line)
  MIC: > 125 µg/mL
[6]; read-out: Geometric Mean MIC, 4 strains (4th E. coli line)
  MIC: 20 µg/mL (≈ 116 µM)
[7]; read-out: Geometric Mean MIC, 1 strain (first listed Pr. vulgaris)
  MIC: > 125 µg/mL
[7]; read-out: Geometric Mean MIC, 2 strains (2nd Pr. vulgaris line)
  MIC: 8 µg/mL (≈ 46.2 µM)
[7]; first listed strain of Pr. vulgaris
  component in the 16:1 mixture at its MIC as % of its individual MIC: < 3.0%
[7]; first listed strain of Pr. vulgaris, 16:1 mixture at its MIC
  amount of component in 4 μg/ml of the 16:1 mixture: 3.76 µg/mL
[8]; read-out: Geometric Mean MIC, 1 strain (1st Ent. cloacae line)
  MIC: 8 µg/mL (≈ 46.2 µM)
[8]; read-out: Geometric Mean MIC, 1 strain (3rd Ent. cloacae line)
  MIC: > 125 µg/mL
[8]; read-out: Geometric Mean MIC, 2 strains (4th Ent. cloacae line)
  MIC: 63 µg/mL (≈ 364 µM)
[8]; read-out: Geometric Mean MIC, 3 strains (2nd Ent. cloacae line)
  MIC: 20 µg/mL (≈ 116 µM)
[9]; read-out: Geometric Mean MIC, 1 strain (3rd Pr. mirabilis line)
  MIC: 11.3 µg/mL (≈ 65.3 µM)
[9]; read-out: Geometric Mean MIC, 1 strain (4th Pr. mirabilis line)
  MIC: 16 µg/mL (≈ 92.4 µM)
[9]; read-out: Geometric Mean MIC, 2 strains (2nd Pr. mirabilis line)
  MIC: > 105 µg/mL
[9]; read-out: Geometric Mean MIC, 4 strains (1st Pr. mirabilis line)
  MIC: 7.3 µg/mL (≈ 42.2 µM)
[10]; read-out: Geometric Mean MIC, 1 strain (1st Pr. rettgeri line)
  MIC: 0.5 µg/mL (≈ 2.89 µM)
[10]; read-out: Geometric Mean MIC, 1 strain (2nd Pr. rettgeri line)
  MIC: > 125 µg/mL
[11]; read-out: Geometric Mean MIC, 1 strain (2nd Kl. pneumoniae line)
  MIC: 40 µg/mL (≈ 231 µM)
[11]; read-out: Geometric Mean MIC, 1 strain (4th Kl. pneumoniae line)
  MIC: > 125 µg/mL
[11]; read-out: Geometric Mean MIC, 2 strains (3rd Kl. pneumoniae line)
  MIC: 40 µg/mL (≈ 231 µM)
[11]; read-out: Geometric Mean MIC, 5 strains (1st Kl. pneumoniae line)
  MIC: 18 µg/mL (≈ 104 µM)
[12]; read-out: Geometric Mean MIC, 1 strain (1st Pr. morganii line)
  MIC: > 125 µg/mL
[12]; read-out: Geometric Mean MIC, 2 strains (2nd Pr. morganii line)
  MIC: 11.3 µg/mL (≈ 65.3 µM)
[13]
  efficacy in infected mice: effective in vivo
[14]
  effect in vivo: no effect in vivo
[15]
  protective effect: some protective effect
[16]; read-out: PD50 /treatment
  ED50: > 400 mg/kg
[16]; read-out: PD50 /treatment, oral, mice, challenge 1×10^5, 0 and 4 hr post-challenge
  ED50: > 100 mg/kg
[17]; Staphylococcus aureus
  MIC: > 125 µg/mL
[17]; strain A15097, 10^-3 dilution inoculum
  MIC: > 125 µg/mL
[17]; strain A-9606, 10^-3 dilution inoculum
  MIC: > 125 µg/mL
[18]
  MIC: > 125 µg/mL
[18]; strain A15119
  MIC: > 125 µg/mL
[18]; strain A-9671
  MIC: > 125 µg/mL
[19]; strain A-9656
  MIC: > 125 µg/mL
[19]; strain A-9657
  MIC: 63 µg/mL (≈ 364 µM)
[19]; strain A-9659
  MIC: > 125 µg/mL
[20]; Proteus mirabilis
  MIC: > 125 µg/mL
[20]; Proteus mirabilis, strain A-9696
  MIC: > 125 µg/mL
[21]
  MIC: > 125 µg/mL
[21]; strain A15130
  MIC: > 125 µg/mL
[21]; strain A20468
  MIC: > 125 µg/mL
[22]; strain A15151
  MIC: 1 µg/mL (≈ 5.78 µM)
[22]; strain A20126
  MIC: 16 µg/mL (≈ 92.4 µM)
[22]; strain A20227
  MIC: 1 µg/mL (≈ 5.78 µM)
[22]; strain A20229
  MIC: 63 µg/mL (≈ 364 µM)
[22]; strain A20543
  MIC: 16 µg/mL (≈ 92.4 µM)
[22]; strain A20574
  MIC: 1 µg/mL (≈ 5.78 µM)
[22]; strain A20602
  MIC: 125 µg/mL (≈ 722 µM)
[22]; strain A-9843a
  MIC: 4 µg/mL (≈ 23.1 µM)
[22]; strain A-9925
  MIC: 16 µg/mL (≈ 92.4 µM)
[23]; molar basis
  in vitro activity compared with sulfathiazole: approached that of sulfathiazole
[23]; relative to the compounds tested
  in vitro activity: generally the most active of the compounds tested
[24]
  ED50: > 400 mg/kg
[25]
  efficacy in infected mice: effective in vivo
[26]
  efficacy in infected mice: effective in vivo
[27]
  MIC: > 125 µg/mL
[28]; blood level studies
  absorption: poor absorption
[28]
  toxicity: low toxicity

## COc1cc(Cc2cnc(N)nc2N)cc(OC)c1OC [T, 2,4-diamino-5-(3',4',5'-trimethoxybenzyl)pyrimidine]
[1]; read-out: PD50 /treatment
  ED50: > 200 mg/kg
[2]; 54 h
  ED50: 348 mg/kg
[4]; 3 h
  ED50: 200 mg/kg
[4]
  ED50: 262 mg/kg
[5]
  MIC: 0.5 µg/mL (≈ 1.72 µM)
[7]
  Geometric Mean MIC: 0.6 µg/mL
  amount of component in 4 μg/ml of the 16:1 mixture: 0.235 µg/mL
  component in the 16:1 mixture at its MIC as % of its individual MIC: 23%
[7]; read-out: Geometric Mean MIC
  MIC: 1 µg/mL (≈ 3.44 µM)
[17]; Staphylococcus aureus
  MIC: 0.25 µg/mL (≈ 0.861 µM)
[20]
  MIC: 4 µg/mL (≈ 13.8 µM)
[20]; Proteus mirabilis
  MIC: 2 µg/mL (≈ 6.89 µM)
[24]
  ED50: > 400 mg/kg
[27]
  MIC: 16 µg/mL (≈ 55.1 µM)
